What follows are molecules tested against T1, human MCH-1R (Homo sapiens, UniProt Q99705) (assay: MCH-1R binding inhibition ([125I]MCH binding to membranes of MCH-1R expression CHO-K1 cells)). Conditions: 50 pM [125I]MCH, membranes of CHO-K1 cells expressing human MCH-1R, 25° C., one hour, pH 7.4; read-out: IC50 (50% inhibition concentration for specific [125I]MCH binding).
T1 construct: expressed in transfected cells; host or cells: CHO-K1 (American Type Culture Collection)
Protocol: A cDNA sequence encoding human MCH-1R [FEBS Letters, Vol. 398, 253 (1996); Biochimica et Biophisica Acta, Vol. 1401, 216 (1998)] was cloned to a plasmid vector pEF/myc/cyto (manufactured by Invitrogen). The obtained expression vector was transfected to a host cell CHO-K1 (American Type Culture Collection) using Lipofectamine Plus reagent (manufactured by Life Technology) to provide MCH-1R expression cells.
Membrane samples prepared from the MCH-1R expression cells were incubated with a test compound and 50 pM [^125I]MCH (manufactured by NEN) in an assay buffer (50 mM Tris buffer containing 10 mM magnesium chloride, 2 mM ethylenediamine tetraacetate, 0.01% bacitracin, and 0.2% bovine serum albumin; pH 7.4) at 25° C. for one hour, followed by filtration through a glass filter GF/C (manufactured by Wattman). The glass filter was washed with 50 mM Tris buffer (pH 7.4) containing 10 mM magnesium chloride, 2 mM ethylenediamine tetraacetate, and 0.04% Tween-20, and then the radioactivity on the glass filter was determined. Non-specific binding was measured in the presence of 1 μM human MCH, and, with respect to each test compound, 50% inhibition concentration (IC50 value) for specific [^125I]MCH binding was determined.

T1 sequence (Q99705 whole entry): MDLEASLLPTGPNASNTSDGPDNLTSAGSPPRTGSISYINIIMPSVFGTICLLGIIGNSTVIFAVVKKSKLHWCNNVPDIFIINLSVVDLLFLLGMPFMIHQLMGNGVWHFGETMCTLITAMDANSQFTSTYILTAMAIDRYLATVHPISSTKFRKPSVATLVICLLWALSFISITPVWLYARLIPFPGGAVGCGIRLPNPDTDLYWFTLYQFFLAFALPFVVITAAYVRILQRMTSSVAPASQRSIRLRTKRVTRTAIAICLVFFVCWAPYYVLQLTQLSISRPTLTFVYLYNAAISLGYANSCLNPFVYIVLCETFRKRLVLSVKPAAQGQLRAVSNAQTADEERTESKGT

`Cc1cc(-n2ccc(OCc3ccc(F)cc3)cc2=O)ccc1OCC1(O)CC1` [Example 5, 4-[(4-Fluorobenzyl)oxy]-1-{4-[(1-hydroxycyclopropyl)methoxy]-3-methylphenyl}pyridin-2(1H)-one] and `Cc1cc(-n2ccc(OCc3ccc(F)cc3)cc2=O)ccc1OCC(C)(C)O` [Example 2, 4-[(4-Fluorobenzyloxy)]-1-[4-(2-hydroxy-2-methylpropoxy)-3-methylphenyl]pyridin-2(1H)-one] are the same in IC50: 11 nM for the first, 11 nM for the second.

Going from `CC(C)(O)COc1ccc(-n2ccc(OCc3ccc(F)cc3)cc2=O)cc1F` [Example 12, 4-[(4-fluorobenzyl)oxy]-1-[3-fluoro-4-(2-hydroxy-2-methylpropoxy)phenyl]pyridin-2(1H)-one] to `CC(C)(O)COc1ccc(-n2ccc(OCc3ccc(F)cc3)cc2=O)cc1Cl` [Example 10, 1-[3-chloro-4-(2-hydroxy-2-methylpropoxy)phenyl]-4-[(4-fluorobenzyl)oxy]pyridin-2(1H)-one], the IC50 falls from 97 nM to 11 nM (8.8-fold).

`O=c1cc(OCc2ccc(Cl)cn2)ccn1-c1ccc(OC[C@H](O)C2CC2)cc1` [Example 22] and `O=c1cc(OCc2ccc(Cl)cn2)ccn1-c1ccc(OC[C@@H](O)C2CC2)cc1` [Example 26, 4-[(5-chloropyridin-2-yl)methoxy]-1-{4-[(2S)-2-cyclopropyl-2-hydroxyethoxy]phenyl}pyridin-2(1H)-one] are within 1.5-fold of each other in IC50: 101 nM for the first, 91 nM for the second.

`COc1cc(-n2ccc(OCc3ccc(Cl)cn3)cc2=O)ccc1OC[C@H](O)C1CC1` [Example 21, 4-[(5-chloropyridin-2-yl)methoxy]-1-{4-[(2R)-2-cyclopropyl-2-hydroxyethoxy]-3-methoxyphenyl}pyridin-2(1H)-one] and `COc1cc(-n2ccc(OCc3ccc(Cl)cn3)cc2=O)ccc1OC[C@@H](O)C1CC1` [Example 24, 4-[(5-chloropyridin-2-yl)methoxy]-1-{4-[(2S)-2-cyclopropyl-2-hydroxyethoxy]-3-methoxyphenyl}pyridin-2(1H)-one] are within 1.5-fold of each other in IC50: 33 nM for the first, 36 nM for the second.

Going from `CC(C)(O)c1ccc2cc(-n3ccc(OCc4ccc(F)cc4)cc3=O)ccc2n1` [Example 7, 4-(4-Fluorobenzyloxy)-1-[2-(2-hydroxypropan-2-yl)quinolin-6-yl]pyridin-2-(1H)-one] to `CC(C)(O)CCOc1ccc(-n2ccc(OCc3ccc(F)cc3)cc2=O)cc1` [Example 9, 4-[(4-Fluorobenzyl)oxy]-1-[4-(3-hydroxy-3-methylbutoxy)phenyl]pyridin-2 (1H)-one], the IC50 falls from 38 nM to 23 nM (1.7-fold). The second is the more potent here.

`CC(C)(CO)COc1ccc(-n2ccc(OCc3ccc(F)cc3)cc2=O)cc1` [Example 6, 4-[(4-Fluorobenzyl)oxy]-1-[4-(3-hydroxy-2,2-dimethylpropoxy)phenyl]pyridin-2(1H)-one] and `COc1cc(-n2ccc(OCc3ccc(F)cc3)cc2=O)ccc1OCCC(C)(C)O` [Example 8, 4-(4-Fluorobenzyloxy)-1-[4-(3-hydroxy-3-methylbutoxy)-3-methoxyphenyl]pyridin-2-(1H)-one] are within 1.5-fold of each other in IC50: 63 nM for the first, 84 nM for the second.

`Cc1cc(-n2ccc(OCc3ccc(F)cc3)cc2=O)ccc1OCC(=O)OC(C)C` [Example 18, propan-2-yl (4-{4-[(4-fluorobenzyl)oxy]-2-oxopyridin-1(2H)-yl}-2-methylphenoxy)acetate] and `COC(=O)COc1ccc(-n2ccc(OCc3ccc(F)cc3)cc2=O)cc1C` [Example 19, methyl (4-{4-[(4-fluorobenzyl)oxy]-2-oxopyridin-1(2H)-yl}-2-methylphenoxy)acetate] are within 1.5-fold of each other in IC50: 23 nM for the first, 31 nM for the second.

With `COC(=O)COc1ccc(-n2ccc(OCc3ccc(F)cc3)cc2=O)cc1OC` [Example 20, methyl (4-{4-[(4-fluorobenzyl)oxy]-2-oxopyridin-1(2H)-yl}-2-methoxyphenoxy)acetate] the IC50 was 61 nM.
